Measured values taken from PubChem BioAssay (NCI).
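Five concentrations, 48 hours, 96-well plates. Definition used: TGI = concentration required for complete inhibition of growth.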

Columns and labels:
Test in all cases: NCI anticancer screen, dose series, 48 h
SF-295 CNS = tested on: SF-295 CNS
LOX IMVI melanoma = tested on: LOX IMVI melanoma
SF-539 CNS = tested on: SF-539 CNS
IGROV1 ovarian = tested on: IGROV1 ovarian
MDA-MB-231 breast = tested on: MDA-MB-231 breast
U251 CNS = tested on: U251 CNS
MDA-MB-435 = tested on: MDA-MB-435
KM12 colon = tested on: KM12 colon
SF-268 CNS = tested on: SF-268 CNS
DU-145 prostate = tested on: DU-145 prostate
HL-60(TB) leukemia = tested on: HL-60(TB) leukemia
NCI-H23 lung = tested on: NCI-H23 lung
MCF7 breast = tested on: MCF7 breast
PC-3 prostate = tested on: PC-3 prostate
TK-10 renal = tested on: TK-10 renal
HCT-116 colon = tested on: HCT-116 colon
UO-31 renal = tested on: UO-31 renal
HS 578T breast = tested on: HS 578T breast
MALME-3M melanoma = tested on: MALME-3M melanoma
A549 NSCLC = tested on: A549 NSCLC

Row | Compound | TGI (SF-295 CNS) | TGI (LOX IMVI melanoma) | TGI (SF-539 CNS) | TGI (IGROV1 ovarian) | TGI (MDA-MB-231 breast) | TGI (U251 CNS) | TGI (MDA-MB-435) | TGI (KM12 colon) | TGI (SF-268 CNS) | TGI (DU-145 prostate) | TGI (HL-60(TB) leukemia) | TGI (NCI-H23 lung) | TGI (MCF7 breast) | TGI (PC-3 prostate) | TGI (TK-10 renal) | TGI (HCT-116 colon) | TGI (UO-31 renal) | TGI (HS 578T breast) | TGI (MALME-3M melanoma) | TGI (A549 NSCLC)
1 | C/C=C(/C)C(=O)O[C@H]1[C@H]2[C@@H]([C@@H](OC(C)=O)[C@H](C)C(=O)[C@@]34C[C@@H](C)C(=O)[C@]3(/C=C(\C)[C@H]1OC(C)=O)O4)C2(C)C | > 20 µM | 6.27 µM | 5.83 µM | 9.96 µM | 9.32 µM | > 20 µM | 6.6 µM | 17.8 µM | > 20 µM | > 20 µM | 2.13 µM | > 20 µM | 5.98 µM | 15.8 µM | 7.61 µM | 5.99 µM | 16 µM | 19.7 µM | – | –
2 | CC(=O)c1cc2c(s1)C(=O)c1sccc1C2=O | 0.0852 µM | 0.0249 µM | 0.0348 µM | 0.337 µM | 0.151 µM | 0.0556 µM | – | 0.332 µM | 0.0889 µM | 0.0995 µM | – | 0.0378 µM | 36.8 µM | 0.133 µM | 0.414 µM | 0.489 µM | 0.0908 µM | 0.198 µM | 0.0313 µM | 0.433 µM
3 | CC1C2CC(CC2(C)O)C1(C)C (configuration not stated) | > 100 µM | – | > 100 µM | > 100 µM | > 100 µM | > 100 µM | – | > 100 µM | > 100 µM | > 100 µM | > 100 µM | > 100 µM | > 100 µM | > 100 µM | > 100 µM | > 100 µM | > 100 µM | > 100 µM | > 100 µM | > 100 µM
4 | CC(O)CN1c2ccccc2Sc2ccccc21 (configuration not stated) | > 100 µM | > 100 µM | > 100 µM | > 100 µM | > 100 µM | > 100 µM | > 100 µM | > 100 µM | > 100 µM | > 100 µM | – | > 100 µM | > 100 µM | > 100 µM | > 100 µM | > 100 µM | > 100 µM | > 100 µM | > 100 µM | > 100 µM
5 | O=C(Cc1ccccc1)NN1C(=O)/C(=C\c2cccc([N+](=O)[O-])c2)SC1=Nc1ccccc1 | > 100 µM | – | > 100 µM | > 100 µM | > 100 µM | > 100 µM | > 100 µM | > 100 µM | > 100 µM | > 100 µM | – | > 100 µM | > 100 µM | – | > 100 µM | > 100 µM | > 100 µM | > 100 µM | – | > 100 µM
6 | COc1ccccc1C(=O)NO | > 100 µM | > 100 µM | – | > 100 µM | > 100 µM | > 100 µM | > 100 µM | > 100 µM | > 100 µM | > 100 µM | > 100 µM | > 100 µM | > 100 µM | > 100 µM | > 100 µM | > 100 µM | > 100 µM | > 100 µM | – | > 100 µM
7 | CCCC1CC(=O)NC(=O)C1C(=O)OC(C)(C)C (configuration not stated) | > 100 µM | > 100 µM | – | > 100 µM | > 100 µM | > 100 µM | > 100 µM | > 100 µM | > 100 µM | > 100 µM | > 100 µM | > 100 µM | > 100 µM | > 100 µM | > 100 µM | > 100 µM | > 100 µM | > 100 µM | > 100 µM | –
8 | CC1(C)C2CCC1(C)C(OC(=O)/C=C/C(=O)OC1CC3CCC1(C)C3(C)C)C2 (configuration not stated) | > 100 µM | 49.9 µM | > 100 µM | > 100 µM | > 100 µM | > 100 µM | > 100 µM | > 100 µM | > 100 µM | > 100 µM | 40.7 µM | > 100 µM | 67.4 µM | > 100 µM | > 100 µM | > 100 µM | > 100 µM | > 100 µM | – | > 100 µM
9 | O=C(O)c1ccccc1CC1Cc2cc3c(cc2C1)CCC3 | > 100 µM | > 100 µM | > 100 µM | > 100 µM | > 100 µM | > 100 µM | > 100 µM | > 100 µM | > 100 µM | > 100 µM | > 100 µM | > 100 µM | > 100 µM | – | > 100 µM | > 100 µM | > 100 µM | > 100 µM | > 100 µM | > 100 µM
10 | CNC1c2ccccc2C(=O)c2cc3c(cc21)OCCOCCOCCOCCO3 (configuration not stated) | > 100 µM | – | > 100 µM | > 100 µM | > 100 µM | > 100 µM | > 100 µM | > 100 µM | > 100 µM | – | 66.6 µM | – | > 100 µM | > 100 µM | > 100 µM | > 100 µM | > 100 µM | > 100 µM | – | > 100 µM
11 | CCOC(=O)c1ccc(C(=O)n2ccnc2)[nH]1 | > 100 µM | > 100 µM | – | > 100 µM | > 100 µM | > 100 µM | > 100 µM | > 100 µM | > 100 µM | > 100 µM | > 100 µM | > 100 µM | > 100 µM | > 100 µM | > 100 µM | > 100 µM | > 100 µM | > 100 µM | > 100 µM | > 100 µM
12 | COc1ccc2[nH]c3c(c2c1)CC(=O)N1CCCC(CC3O)C1 (configuration not stated) | > 100 µM | > 100 µM | > 100 µM | > 100 µM | > 100 µM | > 100 µM | > 100 µM | > 100 µM | > 100 µM | > 100 µM | – | > 100 µM | > 100 µM | > 100 µM | > 100 µM | > 100 µM | > 100 µM | > 100 µM | > 100 µM | > 100 µM
